Results reported in PubChem BioAssay AID328 (DTP/NCI, 2004).
Values joined by “and” are separate entries in the source; they are usually repeats but may differ in a detail not shown here. Equal entries are not always repeated. Inconclusive results and toxic doses are left out. How the source made its calls: active means survival T/C of 150% or more; inactive means T/C below 125% in these data.

Test system: BDF1 mice, P388 leukemia ip, median survival T/C
Assay: NCI In Vivo Anticancer Drug Screen. Data for tumor model P388 Leukemia (intraperitoneal) in B6D2F1 (BDF1) mice
Conditions: endpoint: median survival time, higher = longer survival
In short: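 Survival ratio, drug arm over vehicle arm, in mice with a transplanted tumour.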

[1] = dose: 50.0 mg/kg/injection, schedule: Q01DX009 (ip), vehicle: saline with Tween-80
[2] = dose: 100.0 mg/kg/injection, schedule: Q01DX009 (ip), vehicle: saline with Tween-80
[3] = dose: 200.0 mg/kg/injection, schedule: Q01DX009 (ip), vehicle: saline with Tween-80
[4] = dose: 25.0 mg/kg/injection, schedule: Q01DX009 (ip), vehicle: saline
[5] = dose: 200.0 mg/kg/injection, schedule: Q01DX009 (ip), vehicle: saline
[6] = dose: 400.0 mg/kg/injection, schedule: Q01DX009 (ip), vehicle: saline
[7] = dose: 100.0 mg/kg/injection, schedule: Q01DX009 (ip), vehicle: Klucel (hydroxypropylcellulose) (HPC)
[8] = dose: 25.0 mg/kg/injection, schedule: Q01DX009 (ip), vehicle: saline with Tween-80
[9] = dose: 400.0 mg/kg/injection, schedule: Q01DX009 (ip), vehicle: saline with Tween-80
[10] = dose: 1.56 mg/kg/injection, schedule: Q01DX009 (ip), vehicle: water
[11] = dose: 3.12 mg/kg/injection, schedule: Q01DX009 (ip), vehicle: water
[12] = dose: 6.25 mg/kg/injection, schedule: Q01DX009 (ip), vehicle: water
[13] = dose: 25.0 mg/kg/injection, schedule: Q04DX003 (ip), vehicle: water
[14] = dose: 50.0 mg/kg/injection, schedule: Q04DX003 (ip), vehicle: water
[15] = dose: 100.0 mg/kg/injection, schedule: Q04DX003 (ip), vehicle: saline with Tween-80
[16] = dose: 200.0 mg/kg/injection, schedule: Q04DX003 (ip), vehicle: saline with Tween-80
[17] = dose: 400.0 mg/kg/injection, schedule: Q04DX003 (ip), vehicle: saline with Tween-80

Measured: T/C

CC(C)(O)c1cccc(F)c1
inactive: [1] 100 % of control | [2] 104 % of control | [3] 109 % of control

CC(=O)C(C)=P(c1ccccc1)(c1ccccc1)c1ccccc1
inactive: [4] 102 % of control | dose: 50.0 mg/kg/injection, schedule: Q01DX009 (ip), vehicle: saline 120 % of control | [5] 113 % of control | [6] 98 % of control

C[C@H]1CCC/C=C/[C@@H]2C[C@H](O)C[C@H]2[C@H](O)/C=C/C(=O)O1
inactive: dose: 2.5 mg/kg/injection, schedule: Q01DX009 (ip), vehicle: Klucel (hydroxypropylcellulose) (HPC) 110 % of control | dose: 4.0 mg/kg/injection, schedule: Q01DX010 (ip), vehicle: other 90 % of control | dose: 5.0 mg/kg/injection, schedule: Q01DX009 (ip), vehicle: Klucel (hydroxypropylcellulose) (HPC) 106 % of control | dose: 8.0 mg/kg/injection, schedule: Q01DX010 (ip), vehicle: other 90 % of control | dose: 10.0 mg/kg/injection, schedule: Q01DX009 (ip), vehicle: Klucel (hydroxypropylcellulose) (HPC) 94 % of control | dose: 25.0 mg/kg/injection, schedule: Q01DX009 (ip), vehicle: Klucel (hydroxypropylcellulose) (HPC) 100 % of control | dose: 50.0 mg/kg/injection, schedule: Q01DX009 (ip), vehicle: Klucel (hydroxypropylcellulose) (HPC) 100 % of control | dose: 50.0 mg/kg/injection, schedule: Q04DX003 (ip), vehicle: Klucel (hydroxypropylcellulose) (HPC) 104 % of control | [7] 90 % of control | dose: 100.0 mg/kg/injection, schedule: Q04DX003 (ip), vehicle: Klucel (hydroxypropylcellulose) (HPC) 109 % of control

OC(CCl)Cc1ccccc1 (stereo unspecified)
inactive: [8] 109 % of control | [1] 109 % of control

COC(=O)C(Br)C(OC)c1ccc(C)cc1 (stereo unspecified)
inactive: [2] 100 % of control | [3] 100 % of control | [9] 95 % of control

CC1OCC(Br)([N+](=O)[O-])CO1 (stereo unspecified)
inactive: dose: 12.5 mg/kg/injection, schedule: Q04DX003 (ip), vehicle: saline 99 % of control | dose: 25.0 mg/kg/injection, schedule: Q04DX003 (ip), vehicle: saline 107 % of control

Nc1nc2nsnc2nc1N
inactive: [10] 111 % of control | [11] 111 % of control | dose: 3.12 mg/kg/injection, schedule: Q04DX003 (ip), vehicle: water 100 % of control | [12] 100 % of control | dose: 6.25 mg/kg/injection, schedule: Q04DX003 (ip), vehicle: water 110 % of control | dose: 12.5 mg/kg/injection, schedule: Q01DX009 (ip), vehicle: water 100 % of control | dose: 12.5 mg/kg/injection, schedule: Q04DX003 (ip), vehicle: water 100 % of control | dose: 25.0 mg/kg/injection, schedule: Q01DX009 (ip), vehicle: water 102 % of control | [13] 110 % of control | dose: 50.0 mg/kg/injection, schedule: Q01DX009 (ip), vehicle: water 111 % of control | [14] 115 % of control | dose: 100.0 mg/kg/injection, schedule: Q01DX009 (ip), vehicle: water 118 % of control

C(/C=C/C=C/N1CCCCC1)=[N+]1CCCCC1
inactive: dose: 0.13 mg/kg/injection, schedule: Q01DX009 (ip), vehicle: saline 97 % of control | dose: 0.25 mg/kg/injection, schedule: Q01DX009 (ip), vehicle: saline 104 % of control | dose: 0.5 mg/kg/injection, schedule: Q01DX009 (ip), vehicle: saline 89 % of control | dose: 1.0 mg/kg/injection, schedule: Q01DX009 (ip), vehicle: saline 110 % of control

CS(=O)(=O)c1ncc2cnccn12
inactive: dose: 100.0 mg/kg/injection, schedule: Q04DX003 (ip), vehicle: water 110 % of control

CN(CCO)/N=N/c1nc[nH]c1C(N)=O
inactive: dose: 1.56 mg/kg/injection, schedule: Q01DX009 (ip), vehicle: saline 95 % of control | dose: 3.13 mg/kg/injection, schedule: Q01DX009 (ip), vehicle: saline 100 % of control | dose: 6.25 mg/kg/injection, schedule: Q01DX009 (ip), vehicle: saline 100 % of control | [4] 92 % of control | dose: 100.0 mg/kg/injection, schedule: Q04DX003 (ip), vehicle: saline 105 % of control | [5] 110 % of control | dose: 200.0 mg/kg/injection, schedule: Q04DX003 (ip), vehicle: saline 100 % of control | [6] 100 % of control | dose: 400.0 mg/kg/injection, schedule: Q04DX003 (ip), vehicle: saline 105 % of control

C1CCN[N-]C1.C1CCN[N-]C1.[Cl][Pt+2]([Cl])([Cl])[Cl]
inactive: dose: 0.78 mg/kg/injection, schedule: Q01DX009 (ip), vehicle: water 103 % of control | [10] 112 % of control | [11] 120 % of control | [12] 106 % of control and 111 % of control | [13] 104 % of control | [14] 95 % of control

CC(=O)OC1CCC(C)(C2CCC3(C)C(C(C)CCCC(C)C)CCC3C2CC(=O)O)C(=O)C1 (stereo unspecified)
inactive: [7] 90 % of control | dose: 200.0 mg/kg/injection, schedule: Q01DX009 (ip), vehicle: Klucel (hydroxypropylcellulose) (HPC) 90 % of control | dose: 400.0 mg/kg/injection, schedule: Q01DX009 (ip), vehicle: Klucel (hydroxypropylcellulose) (HPC) 95 % of control

O=C1c2c(Cl)cccc2C(O)(c2ccccc2)c2cccc(Cl)c21
inactive: dose: 50.0 mg/kg/injection, schedule: Q01DX009 (ip), vehicle: other 100 % of control | dose: 100.0 mg/kg/injection, schedule: Q01DX009 (ip), vehicle: other 92 % of control | dose: 200.0 mg/kg/injection, schedule: Q01DX009 (ip), vehicle: other 105 % of control

N#CC(C#N)c1nc2cccnc2s1
inactive: [15] 109 % of control | [16] 93 % of control

O=S(=O)(c1ccccc1)c1nn2nnnc2c2ccccc12
inactive: [8] 86 % of control | [1] 94 % of control | [2] 95 % of control

COc1cc2c(cc1OC)C1CCN3C(=O)CCC3N1CC2 (stereo unspecified)
inactive: [15] 88 % of control | [3] 92 % of control | [16] 92 % of control | [9] 104 % of control | [17] 96 % of control

O=C(O)CCc1ccccc1
inactive: dose: 75.0 mg/kg/injection, schedule: Q01DX009 (ip), vehicle: saline with Tween-80 95 % of control | dose: 100.0 mg/kg/injection, schedule: Q01DX001 (ip), vehicle: Klucel (hydroxypropylcellulose) (HPC) 104 % of control | dose: 150.0 mg/kg/injection, schedule: Q01DX009 (ip), vehicle: saline with Tween-80 109 % of control | dose: 200.0 mg/kg/injection, schedule: Q01DX001 (ip), vehicle: Klucel (hydroxypropylcellulose) (HPC) 100 % of control | dose: 300.0 mg/kg/injection, schedule: Q01DX009 (ip), vehicle: saline with Tween-80 100 % of control | dose: 400.0 mg/kg/injection, schedule: Q01DX001 (ip), vehicle: Klucel (hydroxypropylcellulose) (HPC) 100 % of control

COc1ccc(C(O)c2ccccc2C(=O)Nc2ccccc2)cc1 (stereo unspecified)
inactive: [2] 90 % of control | [3] 100 % of control

COC(=O)CCSC(c1ccccc1)(c1ccccc1)c1ccccc1
inactive: dose: 87.0 mg/kg/injection, schedule: Q01DX009 (ip), vehicle: Klucel (hydroxypropylcellulose) (HPC) 96 % of control

O=C1CCCCC1Oc1ccccc1 (stereo unspecified)
inactive: [2] 95 % of control | [15] 95 % of control | [3] 91 % of control | [16] 100 % of control | [17] 100 % of control

CC(C)(C)OC(=O)NOc1ccc([N+](=O)[O-])cc1[N+](=O)[O-]
inactive: dose: 3.12 mg/kg/injection, schedule: Q01DX009 (ip), vehicle: saline with Tween-80 117 % of control | dose: 6.25 mg/kg/injection, schedule: Q01DX009 (ip), vehicle: saline with Tween-80 90 % of control | dose: 6.25 mg/kg/injection, schedule: Q04DX003 (ip), vehicle: saline with Tween-80 100 % of control | dose: 12.5 mg/kg/injection, schedule: Q01DX009 (ip), vehicle: saline with Tween-80 106 % of control and 93 % of control | dose: 12.5 mg/kg/injection, schedule: Q04DX003 (ip), vehicle: saline with Tween-80 104 % of control | [8] 90 % of control and 96 % of control | dose: 25.0 mg/kg/injection, schedule: Q04DX003 (ip), vehicle: saline with Tween-80 97 % of control | [1] 93 % of control | dose: 50.0 mg/kg/injection, schedule: Q04DX003 (ip), vehicle: saline with Tween-80 97 % of control | [2] 100 % of control
